From PubChem BioAssay AID2305 (GlaxoSmithKline (GSK), 2010)

Test system: P. falciparum 3D7 growth, pLDH absorbance
Test: blood-stage malaria parasite growth potency – strain 3D7, dose response (AID 2305)

Compound | IC50 [nM]
COc1ccc(-c2ccc(CNCc3ccsc3)cc2)cc1S(=O)(=O)NCCN1CCCC1 | 790
COc1cc(OC)cc(C(=O)Nc2nc(-c3ccccn3)cs2)c1 | 560
CC(C)(C)Oc1ccc(C[C@@H]2NC3(C(=O)N(Cc4ccc(Cl)c(Cl)c4)c4ccccc43)C3C(=O)N(c4ccc(Br)cc4)C(=O)C32)cc1 (stereo partly drawn) | 1040
CCOC(=O)C1=C(C)N=c2sc(=Cc3cc(Cl)ccc3O)c(=O)n2C1c1ccc2c(c1)OCO2 (stereo not drawn) | 710
COCCn1c(Sc2ccc(C#N)c([N+](=O)[O-])c2)nnc1-c1ccc(N(C)C)cc1 | 1030
Cc1cc(NN=CC=Cc2ccccc2)c2ccccc2n1 | 760
CN1CCN(c2ccnc3ccc(NC(=O)Nc4ccc5ccccc5c4)cc23)CC1 | 80
Oc1ccc(CC2CCCN(c3nc(NCCCOc4ccccc4-c4ccccc4)nc(N4CCNCC4)n3)C2)cc1 (stereo not drawn) | 920
Cc1c(CNCCCNc2nc3cscc3[nH]2)sc(C(F)F)c1Br | 940
CCCCCCCCc1c(C)[nH]c(C)c(I)c1=O | 740
NC1CCCN(Cc2ccc(-c3cccc(-c4nc5ccc(F)cc5[nH]4)c3)cc2)C1 (stereo not drawn) | 640
CCOc1cc(C)ccc1C1CCN(CCCCNC(=O)c2ccc(-c3ccc(Cl)cn3)cc2)CC1 | 1610
CC(Cc1ccc(NC(=O)c2ccc(CC(C)NCc3ccc(Cl)c(Cl)c3)cc2)cc1)NCCc1cccc(Cl)c1 (stereo not drawn) | 1000
COc1cc([N+](=O)[O-])ccc1NC(=O)Nc1ccc(OC(F)(F)F)cc1 | 1030
COc1ccc2nc(C)cc(NN=Cc3ccc(Cl)cc3)c2c1 | 230
CC(C)(C)c1ccc(CN2CCC(NC(=O)c3ccc(-c4cccc(C(F)(F)F)c4)s3)CC2)cc1 | 360
Cc1cc(N)c2cc(NC(=O)c3cc4ccccc4s3)ccc2n1 | 110
O=C(/C=C/c1ccc(Cl)c(Cl)c1)NCCCN1CCC(c2c[nH]c3ccccc23)CC1 | 970
CCCC(C)NC(=O)[C@H](CC1CCCCC1)NC(=O)c1ccc(O)c(-c2cccc(C(F)(F)F)c2)c1 (stereo partly drawn) | 530
Nc1ccc(-c2cc(Cl)cc(Cl)c2)cc1-c1cc2ccccc2[nH]1 | 690
CN1CC=C(c2c[nH]c3ccc(OC(=O)c4ccccc4)cc23)C1 | 800
COc1ccc2nccc([C@@H](O)CN3CCC(NC(=O)/C=C/c4cc(F)cc(NC(C)=O)c4)CC3)c2c1 | 180
CN1CCC(N2CCN(Cc3ccc(-c4ccc(-c5nc6ccc(F)cc6[nH]5)s4)cc3)CC2)CC1 | 150
CC(=O)Nc1cccc(C(=O)Nc2ccc(-c3ccc(-c4nc5c(C)cccc5[nH]4)s3)cc2)c1 | 1740

Compound | IC50 [nM]
COc1cc(NCCCNC(=O)c2cn(Cc3ccccc3)c3ccccc23)nc2ccccc12 | 870
N#Cc1ccc(N2CCN(Cc3cccc(-c4ccc(-c5nc6ccccc6[nH]5)cc4)c3)CC2)nc1 | 1240
O=C(Nc1ccc(F)cc1F)NC1CCN(c2ccnc3cc(Cl)ccc23)C1 (stereo not drawn) | 250
Cc1cccc2[nH]c(-c3cccc(-c4cccc(NC(=O)CCc5cnc[nH]5)c4)c3)nc12 | 550
N#Cc1ccc(CN2CCC(Oc3ccc(NC(=O)c4ccco4)cc3Cl)CC2)cc1 | 380
COc1ccc(CNCc2ccccc2)cc1-c1cccc(S(=O)(=O)NCCN2CCCC2)c1 | 790
Cc1ccc(NC(=O)NC2CCN(c3ccnc4ccccc34)C2)cc1 (stereo not drawn) | 710
CCN1CCN(CCCNc2c3ccc(Cl)cc3nc3ccc(O)cc23)CC1 | 570
O=c1cc(NCCCNCc2cc(Cl)cc(Cl)c2OCc2ccccc2)[nH]c2ccccc12 | 1030
OCCNc1nc(Nc2ccccc2)nc2ccccc12 | 130
O=C(Nc1cccc(-c2nn3ccccc3c2-c2ccnc(Nc3cccc(F)c3)n2)c1)c1c(F)ccc(F)c1Cl | 1140
COCCNCc1cccc(-c2ccc3c(Nc4ccc(F)cc4Cl)ccnc3c2)c1 | 680
COc1ccccc1NC(=O)OC(COc1ccc(N)cc1)CN1CC=C(c2ccccc2)CC1 (stereo not drawn) | 1040
Clc1cc(Cl)cc(Nc2ccnc(Nc3cc(Cl)cc(Cl)c3)n2)c1 | 670
CCOc1cccc(C2c3c(oc4ccccc4c3=O)C(=O)N2CCN(CC)CC)c1 (stereo not drawn) | 750
Oc1ccc2ccccc2c1CNC1CCCCCC1 | 930
COCCNCc1cccc(-c2ccccc2CN(C(=O)c2ccc3c(c2)OCO3)c2ccc(OC)cc2)c1 | 1110
Cc1cccc2[nH]c(-c3ccc(-c4cccc(CNCc5cccc(N)c5)c4)s3)nc12 | 520
N#Cc1ccc(-c2ccc(C(=O)NCCCCN3CCC(c4ccc5c(c4OCc4ccncc4)CCCC5)CC3)cc2)cc1 | 760
COc1ccc2nccc(N(C)CC3(O)CCC(NCc4cc5c(cn4)OCCO5)CC3)c2n1 (stereo not drawn) | 680
CN1CCC[C@H]1COc1ccc(CN2CC[C@H](NC(=O)c3ccc(Cl)c(Cl)c3)C2)c2ccccc12 | 950
CN(C)CCNCc1cccc(-c2ccc3c(Nc4ccc(Oc5ccccc5)cc4)ccnc3c2)c1 | 440
CC(=O)N1CCC(C(=O)Nc2ccc(-c3cccc(-c4nc5c(C)cccc5[nH]4)c3)cc2)CC1 | 310
CNCCNCc1ccc(-c2ccc(-c3nc4c(C)cccc4[nH]3)s2)cc1 | 730
